In paper PMC11702208 (RSC Advances, 2025):
“And” between values parts separate entries of the source, which are not always exact repeats. Identical values can stand only once. Like-named read-outs stand apart in the source and are kept apart here.

Columns and labels:
[1] = test system: Ovarian cancer subpanel tumor cell lines; assay: NCI cytotoxicity screen, subpanel; format: cell-based, human
HER2 = HER2 (Homo sapiens, UniProt P04626); assay: HER2 tyrosine kinase assay; format: biochemical; conditions: IC50 HER2 inhibition
[2] = test system: CNS cancer subpanel tumor cell lines; assay: NCI cytotoxicity screen, subpanel; format: cell-based, human
DU-145 = assay: NCI cytotoxicity screen; format: cell-based, human; conditions: for GI %: 10.0 μM one dose
HOP-62 = assay: NCI cytotoxicity screen; format: cell-based, human; conditions: for GI %: 10.0 μM one dose
EGFR = EGFR (Homo sapiens, UniProt P00533); assay: biochemical; conditions: IC50 EGFR inhibition
SN12C = assay: NCI cytotoxicity screen; format: cell-based, human; conditions: for GI %: 10.0 μM one dose, SN-12C
HT29 = assay: NCI cytotoxicity screen; format: cell-based, human; conditions: HT-29; for GI %: 10.0 μM one dose
HCC-2998 = assay: NCI cytotoxicity screen; format: cell-based, human; conditions: for GI %: 10.0 μM one dose, HCC-2998
HL-60(TB) = conditions: 10.0 μM one dose
COX-2 = target: T1, COX-2 (Ovis aries, UniProt P79208); assay: Colorimetric COX; format: biochemical, ovine
T1 sequence (P79208 17-603): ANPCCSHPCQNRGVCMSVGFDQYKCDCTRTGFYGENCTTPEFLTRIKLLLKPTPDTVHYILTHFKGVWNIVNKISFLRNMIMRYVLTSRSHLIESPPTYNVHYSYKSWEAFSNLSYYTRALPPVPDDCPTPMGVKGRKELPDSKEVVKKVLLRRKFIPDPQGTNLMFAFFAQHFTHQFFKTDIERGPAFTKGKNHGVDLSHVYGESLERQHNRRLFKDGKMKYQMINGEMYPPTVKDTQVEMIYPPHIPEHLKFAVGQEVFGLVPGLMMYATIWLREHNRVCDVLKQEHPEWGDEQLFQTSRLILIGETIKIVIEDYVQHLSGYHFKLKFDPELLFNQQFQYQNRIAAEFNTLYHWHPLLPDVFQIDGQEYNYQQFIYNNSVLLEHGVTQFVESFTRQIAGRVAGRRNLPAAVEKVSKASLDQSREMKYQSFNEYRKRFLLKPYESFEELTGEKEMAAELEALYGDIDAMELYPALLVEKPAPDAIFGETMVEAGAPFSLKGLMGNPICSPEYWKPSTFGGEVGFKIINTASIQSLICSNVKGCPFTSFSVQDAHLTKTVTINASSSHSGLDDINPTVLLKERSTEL

K-562 = conditions: 10.0 μM one dose
[3] = test system: Breast cancer subpanel tumor cell lines; assay: NCI cytotoxicity screen, subpanel; format: cell-based, human
59 cancer cell lines = assay: NCI cytotoxicity screen, full panel; format: cell-based, human; conditions: for MG% (mean growth percent): 10.0 μM one dose, 59 cell lines
T-47D cells = assay: Cell cycle analysis; format: cell-based; conditions: compound at IC50 concentration
CDK9 = CDK9 (Homo sapiens, UniProt P50750); assay: biochemical; conditions: IC50 CDK9 inhibition
OVCAR-5 = assay: NCI cytotoxicity screen; format: cell-based, human; conditions: for GI %: 10.0 μM one dose, IGROV-5
[4] = test system: Renal cancer subpanel tumor cell lines; assay: NCI cytotoxicity screen, subpanel; format: cell-based, human
SF-295 = assay: NCI cytotoxicity screen; format: cell-based, human; conditions: for GI %: 10.0 μM one dose
786-0 = assay: NCI cytotoxicity screen; format: cell-based, human; conditions: for GI %: 10.0 μM one dose
[5] = test system: Leukemia subpanel tumor cell lines; assay: NCI cytotoxicity screen, subpanel; format: cell-based, human
OVCAR-8 = assay: NCI cytotoxicity screen; format: cell-based, human; conditions: for GI %: 10.0 μM one dose
SW-620 = assay: NCI cytotoxicity screen; format: cell-based, human; conditions: for GI %: 10.0 μM one dose
NCI-H460 = assay: NCI cytotoxicity screen; format: cell-based, human; conditions: for GI %: 10.0 μM one dose
T-47D = assay: NCI cytotoxicity screen; format: cell-based, human; conditions: for GI %: 10.0 μM one dose, T-47D
SF-268 = assay: NCI cytotoxicity screen; format: cell-based, human; conditions: for GI %: 10.0 μM one dose
UACC-257 = assay: NCI cytotoxicity screen; format: cell-based, human; conditions: for GI %: 10.0 μM one dose
[6] = test system: Melanoma subpanel tumor cell lines; assay: NCI cytotoxicity screen, subpanel; format: cell-based, human
MALME-3M = assay: NCI cytotoxicity screen; format: cell-based, human; conditions: for GI %: 10.0 μM one dose, MALME-3M
MOLT4 cells [7] = assay: Cell cycle analysis; format: cell-based; conditions: compound at IC50 concentration
MOLT4 cells [8] = assay: Annexin V-FITC/PI apoptosis assay; format: cell-based

EGFR, sequence (P00533 25-1210): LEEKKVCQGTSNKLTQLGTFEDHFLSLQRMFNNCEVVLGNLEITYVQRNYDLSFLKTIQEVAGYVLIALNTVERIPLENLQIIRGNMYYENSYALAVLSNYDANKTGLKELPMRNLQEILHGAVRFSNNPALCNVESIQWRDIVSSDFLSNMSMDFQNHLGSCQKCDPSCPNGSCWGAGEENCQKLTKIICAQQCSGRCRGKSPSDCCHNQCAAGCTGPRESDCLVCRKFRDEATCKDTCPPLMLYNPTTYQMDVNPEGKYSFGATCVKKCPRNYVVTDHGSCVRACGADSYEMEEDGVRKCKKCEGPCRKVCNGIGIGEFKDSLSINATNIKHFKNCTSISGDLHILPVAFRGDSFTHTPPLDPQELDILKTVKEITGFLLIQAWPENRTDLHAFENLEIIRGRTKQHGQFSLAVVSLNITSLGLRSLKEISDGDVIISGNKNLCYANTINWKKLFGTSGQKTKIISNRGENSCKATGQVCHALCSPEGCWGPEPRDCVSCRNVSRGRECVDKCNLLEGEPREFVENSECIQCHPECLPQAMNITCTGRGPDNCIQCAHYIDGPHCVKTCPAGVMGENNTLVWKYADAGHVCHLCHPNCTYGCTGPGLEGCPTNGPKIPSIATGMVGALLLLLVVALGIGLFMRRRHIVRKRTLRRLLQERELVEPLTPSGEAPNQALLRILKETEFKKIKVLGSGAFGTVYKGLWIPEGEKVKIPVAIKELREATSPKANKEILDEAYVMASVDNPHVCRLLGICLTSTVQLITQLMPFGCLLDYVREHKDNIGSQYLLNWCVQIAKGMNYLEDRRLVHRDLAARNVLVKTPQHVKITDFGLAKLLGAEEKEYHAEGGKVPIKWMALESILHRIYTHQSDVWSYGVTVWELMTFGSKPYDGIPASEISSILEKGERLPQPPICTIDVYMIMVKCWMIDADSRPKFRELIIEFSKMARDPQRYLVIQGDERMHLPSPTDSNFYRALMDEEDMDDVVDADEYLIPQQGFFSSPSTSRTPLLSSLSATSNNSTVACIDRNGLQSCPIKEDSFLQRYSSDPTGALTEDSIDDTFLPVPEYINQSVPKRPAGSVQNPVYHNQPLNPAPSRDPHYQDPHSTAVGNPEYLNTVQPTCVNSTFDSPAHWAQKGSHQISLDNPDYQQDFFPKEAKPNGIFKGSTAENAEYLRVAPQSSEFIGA
HER2, sequence (P04626 23-1255): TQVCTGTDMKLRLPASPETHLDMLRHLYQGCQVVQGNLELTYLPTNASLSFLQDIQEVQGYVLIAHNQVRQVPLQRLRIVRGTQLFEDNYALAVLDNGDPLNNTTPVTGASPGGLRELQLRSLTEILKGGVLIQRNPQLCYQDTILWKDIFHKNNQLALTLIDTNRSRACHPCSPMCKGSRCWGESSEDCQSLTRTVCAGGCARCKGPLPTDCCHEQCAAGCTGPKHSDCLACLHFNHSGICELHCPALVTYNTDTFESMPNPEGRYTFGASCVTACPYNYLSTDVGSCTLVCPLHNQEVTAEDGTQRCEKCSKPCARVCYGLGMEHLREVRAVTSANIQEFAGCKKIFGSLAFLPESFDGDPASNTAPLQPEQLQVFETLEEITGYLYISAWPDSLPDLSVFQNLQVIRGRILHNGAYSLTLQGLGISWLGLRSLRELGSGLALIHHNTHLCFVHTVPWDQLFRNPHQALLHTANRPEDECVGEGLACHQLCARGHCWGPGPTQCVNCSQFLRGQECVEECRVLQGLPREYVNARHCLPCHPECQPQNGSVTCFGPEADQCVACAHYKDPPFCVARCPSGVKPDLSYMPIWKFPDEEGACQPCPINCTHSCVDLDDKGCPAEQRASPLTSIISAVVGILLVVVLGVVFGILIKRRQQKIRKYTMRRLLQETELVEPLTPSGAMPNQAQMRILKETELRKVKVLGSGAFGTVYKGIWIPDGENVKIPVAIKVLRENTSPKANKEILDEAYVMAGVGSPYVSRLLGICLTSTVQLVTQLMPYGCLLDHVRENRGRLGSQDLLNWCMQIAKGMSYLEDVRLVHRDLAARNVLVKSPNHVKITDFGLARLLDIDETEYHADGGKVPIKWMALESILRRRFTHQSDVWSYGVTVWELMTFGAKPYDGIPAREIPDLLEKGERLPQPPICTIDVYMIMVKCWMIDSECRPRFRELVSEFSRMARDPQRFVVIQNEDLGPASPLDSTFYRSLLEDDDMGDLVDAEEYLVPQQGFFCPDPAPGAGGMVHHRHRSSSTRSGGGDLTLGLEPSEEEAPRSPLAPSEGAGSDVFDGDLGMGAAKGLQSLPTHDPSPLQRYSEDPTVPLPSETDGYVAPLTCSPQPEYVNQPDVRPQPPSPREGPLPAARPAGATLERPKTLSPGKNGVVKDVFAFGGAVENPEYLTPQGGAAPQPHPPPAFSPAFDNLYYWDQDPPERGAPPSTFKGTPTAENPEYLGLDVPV
CDK9, sequence (P50750 whole entry): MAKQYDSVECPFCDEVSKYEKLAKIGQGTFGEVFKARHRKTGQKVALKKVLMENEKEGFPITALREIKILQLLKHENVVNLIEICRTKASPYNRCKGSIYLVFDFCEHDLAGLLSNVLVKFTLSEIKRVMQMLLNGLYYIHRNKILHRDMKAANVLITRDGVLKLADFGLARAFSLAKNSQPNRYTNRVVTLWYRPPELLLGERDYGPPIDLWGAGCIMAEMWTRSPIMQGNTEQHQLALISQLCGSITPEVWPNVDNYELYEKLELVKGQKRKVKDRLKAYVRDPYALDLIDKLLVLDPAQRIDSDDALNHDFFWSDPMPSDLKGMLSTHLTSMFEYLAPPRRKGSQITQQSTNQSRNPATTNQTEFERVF
CDK9, sequence (O60563 whole entry partner): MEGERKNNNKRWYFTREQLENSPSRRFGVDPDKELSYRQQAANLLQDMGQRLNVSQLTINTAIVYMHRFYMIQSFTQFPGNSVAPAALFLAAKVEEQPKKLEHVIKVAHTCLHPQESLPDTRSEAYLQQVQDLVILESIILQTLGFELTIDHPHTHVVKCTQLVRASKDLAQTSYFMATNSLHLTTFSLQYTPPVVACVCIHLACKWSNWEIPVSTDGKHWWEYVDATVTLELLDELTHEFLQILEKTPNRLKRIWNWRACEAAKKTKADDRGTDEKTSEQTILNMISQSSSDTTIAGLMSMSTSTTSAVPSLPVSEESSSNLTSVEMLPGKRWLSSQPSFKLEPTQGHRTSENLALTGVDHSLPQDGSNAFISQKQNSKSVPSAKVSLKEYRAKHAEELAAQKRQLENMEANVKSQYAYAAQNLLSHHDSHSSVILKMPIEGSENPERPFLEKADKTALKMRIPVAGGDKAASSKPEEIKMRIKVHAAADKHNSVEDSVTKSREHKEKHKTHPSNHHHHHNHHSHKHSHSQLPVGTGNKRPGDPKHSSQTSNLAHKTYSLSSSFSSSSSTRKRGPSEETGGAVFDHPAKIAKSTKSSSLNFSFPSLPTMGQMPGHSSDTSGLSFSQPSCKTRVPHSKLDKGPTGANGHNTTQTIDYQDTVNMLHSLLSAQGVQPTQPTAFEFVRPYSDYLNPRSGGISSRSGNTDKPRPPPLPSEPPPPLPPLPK

## CCN(CC)c1ccc(C=NNC(=O)CSc2nc3ccccc3c(=O)n2Cc2ccc(S(N)(=O)=O)cc2)c(O)c1 [Compound 5, 4-((2-((2-(2-(4-(Diethylamino)-2-hydroxybenzylidene)hydrazineyl)-2-oxoethyl)thio)-4-oxoquinazolin-3(4H)-yl)methyl)benzenesulfonamide]
[1]; Homo sapiens, read-out: LC50
  CC50: > 100000 nM
[1]; Homo sapiens, subpanel value, Ovarian cancer
  GI50: 15100 nM
[1]; subpanel value, Ovarian cancer
  GI50: 15100 nM
  TGI: c (Compounds showed values > 100 μM)
HER2
  IC50: 53.9 nM
[2]; Homo sapiens, read-out: LC50
  CC50: > 100000 nM
[2]; Homo sapiens, subpanel value, CNS cancer
  GI50: 1500 nM
[2]; subpanel value, CNS cancer
  GI50: 1490 nM
  TGI: c (Compounds showed values > 100 μM)
DU-145
  GI %: 62%
DU-145; Homo sapiens
  GI50: 944 nM
HOP-62
  GI %: 79%
HOP-62; Homo sapiens
  GI50: 961 nM
EGFR
  IC50: 84.4 nM
SN12C
  GI %: 68%
SN12C; Homo sapiens, SN12C
  GI50: 1930 nM
HT29
  GI %: 68%
HT29; Homo sapiens
  GI50: 3010 nM
HCC-2998
  GI %: 80%
HCC-2998; Homo sapiens, HCC 2998
  GI50: 882 nM
HL-60(TB)
  GI %: 120%
COX-2
  IC50: 3320 ± 60 nM
K-562
  GI %: 94%
[3]; Homo sapiens, read-out: LC50
  CC50: > 100000 nM
[3]; Homo sapiens, subpanel value, Breast cancer
  GI50: 1200 nM
[3]; subpanel value, Breast cancer
  GI50: 1230 nM
  TGI: 84170 nM
59 cancer cell lines
  MG% (mean growth percent): 23.5% and 23.46%
59 cancer cell lines; Homo sapiens, read-out: GI50 MG_MID, full panel mean-graph midpoint
  GI50: 1000 nM
59 cancer cell lines; Homo sapiens, read-out: LC50 MG_MID, full panel mean-graph midpoint
  CC50: > 100000 nM
59 cancer cell lines; full panel mean-graph midpoint
  TGI MG_MID: 89200 nM and 89240 nM
59 cancer cell lines; read-out: GI50 MG_MID, full panel mean-graph midpoint
  GI50: 1100 nM
59 cancer cell lines; read-out: LC50 MG_MID, full panel mean-graph midpoint
  CC50: > 100000 nM
T-47D cells
  %G0-G1: 46.31%
  %G2-M: 26.3%
  %S: 20.9%
T-47D cells; listed as Five
  %G2-M: 26.27%
  %S: 27.42%
CDK9
  IC50: 147 ± 3.6 nM
OVCAR-5
  GI %: 45%
OVCAR-5; Homo sapiens, OVCAR-5
  GI50: 2090 nM
[4]; Homo sapiens, read-out: LC50
  CC50: > 100000 nM
[4]; Homo sapiens, subpanel value, Renal cancer
  GI50: 1900 nM
[4]; subpanel value, Renal cancer
  GI50: 1920 nM
  TGI: 91540 nM
SF-295
  GI %: 80%
SF-295; Homo sapiens
  GI50: 1470 nM
786-0
  GI %: 68%
786-0; Homo sapiens
  GI50: 1840 nM
[5]; Homo sapiens, read-out: LC50
  CC50: > 100000 nM
[5]; Homo sapiens, subpanel value, Leukemia
  GI50: 400 nM
[5]; subpanel value, Leukemia
  GI50: 384 nM
  TGI: 68371 nM
OVCAR-8
  GI %: 80%
OVCAR-8; Homo sapiens
  GI50: 932 nM
SW-620
  GI %: 79%
SW-620; Homo sapiens
  GI50: 949 nM
NCI-H460
  GI %: 94%
NCI-H460; Homo sapiens
  GI50: 424 nM
T-47D
  GI %: 94%
T-47D; Homo sapiens, T47D
  GI50: 925 nM
SF-268
  GI %: 82%
SF-268; Homo sapiens
  GI50: 766 nM
UACC-257
  GI %: 87%
UACC-257; Homo sapiens
  GI50: 3030 nM
[6]; Homo sapiens, read-out: LC50
  CC50: > 100000 nM
[6]; Homo sapiens, subpanel value, Melanoma
  GI50: 1500 nM
[6]; subpanel value, Melanoma
  GI50: 1500 nM
  TGI: 59090 nM
MALME-3M
  GI %: 69%
MALME-3M; Homo sapiens, Malme-3M
  GI50: 1090 nM

## NS(=O)(=O)c1ccc(Cn2c(SCC(=O)NN=Cc3ccccc3O)nc3ccccc3c2=O)cc1 [Compound 6, 4-((2-((2-(2-(2-Hydroxybenzylidene)hydrazineyl)-2-oxoethyl)thio)-4-oxoquinazolin-3(4H)-yl)methyl)benzenesulfonamide]
HER2
  IC50: 44.1 nM
DU-145
  GI %: 28%
HOP-62
  GI %: 65%
EGFR
  IC50: 51.5 nM
SN12C
  GI %: 44%
HT29
  GI %: 14%
HCC-2998
  GI %: 50%
MOLT4 cells [7]
  %G0-G1: 89.04%
  %G2-M: 1.40%
HL-60(TB)
  GI %: 60%
COX-2
  IC50: 4470 ± 90 nM
K-562
  GI %: 64%
59 cancer cell lines
  MG% (mean growth percent): 55.2% and 55.22%
CDK9
  IC50: 96.1 nM
OVCAR-5
  GI %: 32%
SF-295
  GI %: 35%
MOLT4 cells [8]
  Apoptosis Early: 19.2% and 19.22%
  Apoptosis Total: 35.06%
  Necrosis: 3.23%
786-0
  GI %: 29%
OVCAR-8
  GI %: 56%
SW-620
  GI %: 40%
NCI-H460
  GI %: 51%
T-47D
  GI %: 67%
SF-268
  GI %: 62%
UACC-257
  GI %: 30%
MALME-3M
  GI %: 41%
